Entries after “also recorded” stand apart in the source; their conditions may differ.
Columns and labels:
Format in all cases: in vivo, mouse
[1] = tested on: HFD-fed INK-ATTAC mice; test: Elevated plus maze, chow/HFD INK-ATTAC mice treated with AP20187; details: INK-ATTAC mice on HFD; AP20187 10 mg/kg i.p. vs vehicle
Method: (§1) INK-ATTAC mice were injected intraperitoneally (i.p.) with AP20187 (10 mg/kg) or vehicle for 3 days every 2 weeks for a total of 8-10 weeks.
A grey colored elevated plus maze apparatus was used. Two open arms (25×5 cm) and two closed arms (25×5 cm) were attached at right angles to a central platform (5×5 cm). The apparatus was set 40 cm above the floor. Mice were first acclimatized to the room for 1-1.5 hours. Mice were then placed individually on the central platform with their back to one of the open arms. Before the test, mice were habituated for 1 minute to the maze, then placed back in the home cage for 5 minutes. Mice were tested for 5 minutes during which they could freely explore the apparatus. Tracking software (Ethovision) recognizes mouse head, central body point, and the base of the tail. Anxiety was quantified by frequency of and time spent during head pokes/dips toward open arms. Higher anxiety is indicated by a lower frequency of movement into open arms and less time spent there.

[2] = tested on: SASP factors; test: Circulating cytokines in blood plasma, INK-ATTAC mice on HFD; details: HFD-fed INK-ATTAC mice; AP vs vehicle
Method: as §1
Serum levels of cytokines: Eotaxin, G-Csf, Tnf-α, Il-6, Ifn-γ, Il-1α, Il-1β, Il-17, Il-2, Kc/Cxcl1, Mcp-1, M-Csf, Mig, Mip-1α, and Mip-1β were determined using a Multiplexing LASER Bead Assay (Mouse Cytokine Array/Chemokine Array 31-Plex (MD31), Eve Technologies; Canada). Blood was withdrawn from mice by punctuation of the sub-mandibular vein at the day of dissection before an animal was sacrificed. 50 μL of serum were shipped to Eve Technologies on dry ice. Due to high variability of data an unbiased elimination of outliers was performed using ROUT's method (Graphpad 7 Prism). The same panel was used to detect SASP in MAF and 50 μl of media was shipped to Eve Technologies on dry ice.

[3] = tested on: senescent cells in cortex, cerebellum, and hippocampus; test: Senescence markers in cortex, cerebellum and hippocampus, INK-ATTAC mice; details: obese and lean INK-ATTAC mice with and without AP
Method: as §1
Total RNA was extracted from white adipose tissue and brain using Trizol (Life Technologies, Carlsbad, Calif.) and reverse transcribed to cDNA with a M-MLV Reverse Transcriptase kit (Life Technologies). Real-time PCR was performed in a 7500 Fast Real Time PCR System (Applied Biosystems, Foster City, Calif.) using TaqMan Fast Universal PCR Master Mix (Life Technologies) and predesigned primers and probes from Applied Biosystems (Assay ID: Mm00494449_m1 [CDKN2A]; Mm04205640_g1 [CDKN1A]; Mm00446191_m1 [IL6]). Target gene expression was expressed as 2-ΔΔCT by the comparative CT method and normalized to the expression of TATA-binding protein (TBP) (Assay ID: Mm01277042 ml [TBP]).
Paraffin sections were deparaffinized with Histoclear and hydrated in an ethanol gradient followed by water and PBS. Antigen was retrieved by incubation in 0.01M citrate buffer (pH 6.0) at 95° C. for 10 minutes. Slides were placed in blocking buffer (1:60 normal goat serum [S-1000, Vector Laboratories] in 0.1% BSA/PBS) for 60 minutes at room temperature. […] Primary antibodies used (Table 2) were diluted in blocking buffer and applied overnight at 4° C. The next day, slides were washed 3 times with PBS and incubated for 30 minutes with secondary goat, anti-rabbit antibody (1:200; Vector Laboratories #BA-1000) for TAF staining or for 60 minutes with secondary Alexa antibody (Table 1). […]
A single, 3 μm-thick section per mouse was used for TAF staining, while for Dcx and Plin2 staining was performed on three 10 μm-thick sections 80 μm-apart. To quantify periventricular lipid accumulation 10-30 images in the periventricular region were taken using the DM5500 widefield fluorescence microscope from Leica with a 10× (for frequency of periventricular glia) or ×40 (for ALISE phenotype of ependymal cells) objective lens. Number of Plin2-positive cells (for frequency of ALISE-positive periventricular glia) or area of Plin2-positive vesicles (for ALISE phenotype of ependymal cells) was assessed using ImageJ software. For identity assessment of Plin2+ cells, 10 μm-thick sections were stained with combination of antibodies for Iba1 (secondary antibody conjugated with Alexa Fluor 488), Plin2 (secondary antibody conjugated with Alexa Fluor 594), and Vimentin (secondary antibody conjugated with Alexa Fluor 647) and quantified for frequency of Plin2+ astrocytes (Iba1−, Vim+) and microglia (Iba1+) in the periventricular region. […] For TAF quantification in depth Z stacking was used (images were captured as stacks separated by 0.4 μm with ×63 objective) followed by ImageJ analysis.

CC[C@H](C(=O)N1CCCC[C@H]1C(=O)O[C@H](CCc1ccc(OC)c(OC)c1)c1cccc(OCC(=O)NCC(CNC(=O)COc2cccc([C@@H](CCc3ccc(OC)c(OC)c3)OC(=O)[C@@H]3CCCCN3C(=O)[C@@H](CC)c3cc(OC)c(OC)c(OC)c3)c2)CN(C)C)c1)c1cc(OC)c(OC)c(OC)c1 [AP]
anxiety-like phenotype: frequency of head entries/pokes into the open arms, EPM [1]: increased; also recorded: significantly decreased the anxiety-like phenotype | time mice spent with their heads in open area, EPM [1]: increased | G-Csf in the bloodstream [2]: down-regulated | Il-1β in the bloodstream [2]: down-regulated | Kc/Cxcl1 in the bloodstream [2]: down-regulated | Mcp-1 in the bloodstream [2]: down-regulated | Mig in the bloodstream [2]: down-regulated | Tnf-α in the bloodstream [2]: down-regulated | TAF in cortex, cerebellum, hippocampus [3]: No differences | p16 in cortex, cerebellum, hippocampus [3]: No differences | p21 in cortex, cerebellum, hippocampus [3]: No differences | γ-H2A.X in cortex, cerebellum, hippocampus [3]: No differences

— patent US20210379068A1, “METHODS AND MATERIALS FOR TREATING NEUROPSYCHIATRIC DISORDERS” (Mayo Foundation for Medical Education and Research, priority 2018, published 2021)
